# Test results from article PMC10709007, “GPR162 is a beta cell CART receptor” (iScience, 2023).
# “Also recorded” adds a separate entry of the source. Where no end group is shown, it is not given here.
# Experiments:
# INS-1 832/13 cells [1] = conditions: cited from earlier work
# Description: (§1) GPR162 was identified as the most CART-affected orphan receptor in INS-1 832/13 cells. […] By showing that CART binds to GPR162 and that biological effects of CART are reduced or ablated after Gpr162 KD, we propose that GPR162 acts as a CART receptor in beta cells. We also established expression of GPR162 in a majority of human and mouse beta cells. Moderate GPR162 immunoreactivity was evident across the cytoplasm and more intense immunoreact ...
# AtT20 = conditions: exogenous CART; cited from earlier work
# Description: as §1
# AtT20 cells = conditions: cited from earlier work
# Description: However, much earlier, a fragment of the CART peptide was identified in extracts of sheep hypothalamus.[2] CART was later found to be expressed also in pancreatic islet cells and in nerve fibers innervating the islets.[3]^,[4]^,[5] […] Since then, multiple biological effects of CART have been established.[4]^,[7] Among them is the effect of CART on islet hormone secretion fr ...
# INS-1 832/13 cells [2] = experiment: Glucose-stimulated insulin secretion (GSIS) in INS-1 832/13; type: cell-based, rat; conditions: 10^-7M CARTp55-102 24 h before GSIS, 16.7 mM glucose, 10 μM IBMX
# Experimental: GSIS was measured 72 h after Cartpt KD. INS-1 832/13 cells were washed twice and incubated for 2 h in 2.8 mM glucose HEPES-buffered saline solution (HBSS): 114 mM NaCl, 4.7 mM KCl, 1.2 mM KH2PO4, 1.16 mM MgSO4, 20 mM HEPES, 2.5 mM CaCl2, 25.5 mM NaHCO3, 0.2% BSA, pH 7.2, followed by 1-h stimulation in the same buffer containing 2.8 mM, 16.7 mM glucose, 16.7 mM glucose and 10 μM IBMX. In a separate experiment, control and Gpr162 KD cells were incubated with 10^−7M CARTp55-102 for 24 h before GSIS. Insulin concentrations in supernatant were determined using ELISA (Mercodia, Uppsala, Sweden) and were normalized to total protein content of each well (determined by Bio-Rad protein assay, BioRad).
# Insulin from INS-1 832/13 cells and mouse islets were analyzed using ELISA (Mercodia).
# beta cells in islets = conditions: between beta cells within same islet; cited from earlier work
# Description: Our observation that CART affects cytoskeletal rearrangement is novel. Without doubt, the actin network is of great importance for properly functioning insulin secretion.[34]^,[35]^,[36]^,[37] In the present study, a large number of genes involved in cytoskeletal rearrangement were affected by both Cartpt KD and Gpr162 KD. […] Furthermore, Cartpt KD also affects genes crucial for regulation of exocytosis,[14] a process indeed dependent on ...
# rats = conditions: cited from earlier work
# Description: However, much earlier, a fragment of the CART peptide was identified in extracts of sheep hypothalamus.[2] CART was later found to be expressed also in pancreatic islet cells and in nerve fibers innervating the islets.[3]^,[4]^,[5] […] Since then, multiple biological effects of CART have been established.[4]^,[7] Among them is the effect of CART on islet hormone secretion fr ... || When studying neuropathic pain, Yosten et al.[11] found GPR160 to be necessary for CARTp-mediated cell activation in cell culture. […] Information on GPR160 is scarce, but it has been reported to be a potential marker for prostate cancer,[24] where it is involved in apoptosis and cell-cycle arrest.[25] […] Recently, the notion of GPR160 being the ... || (+ 1 further places)
# GIP receptor = experiment: Proximity ligation assay (PLA) CART-GIP receptor (specificity control); type: binding, rat; conditions: control experiment, goat anti-CART with rabbit anti-GIP receptor
# Experimental: INS-1 832/13 cells were seeded in 8-well tissue culture chambers (Sarstedt, Nümbrecht, Germany). 10^−7M rat CARTp55-102 (Phoenix Pharmaceuticals, Burlingame, CA) was added to fresh media and cells were incubated for 5 min in a humidified atmosphere (37°C, 5% CO2). Cells were rinsed quickly in ice-cold 1XPBS and then washed twice with ice-cold PBS. Cells were then fixed for 20 min in 4% paraformaldehyde, washed 2 × 10 min in 1XPBS and permeabilized for 15 min in PBS +0.25% Triton X-100. Proximity ligation assay (PLA) (DuoLink In situ Red Starter Kit Goat/Rabbit, Sigma Aldrich) was performed according to the instructions provided by the manufacturers. The following antibody combinations were used for the PLA: goat anti-GPR162 (sc-138323, dilution 1:500, Santa Cruz) with rabbit anti-CART (code 2059A, dilution 1:5000, kindly provided by Dr. Jes T. Clausen, Novo Nordisk, Måløv, Denmark), and goat anti-CART (code sc-18068, dilution 1:400, Santa Cruz) with rabbit anti-GPR162 (code PA5-33655, dilution 1:500, Thermo Scientific). Anti-rabbit GPR160 (code PA5-33650) was combined with anti-goat CART (code sc-18068 from Santa Cruz). Anti-rabbit GNA13 (PA5-100644) was combined with anti-goat GPR162 (sc-138323). Negative controls were omission of both antibodies and the combination of the CART antibody with an antibody toward a receptor with a known ligand. […]
# INS-1 832/13 cells [3] = experiment: Actin staining (phalloidin) in INS-1 832/13 cells; type: cell-based, rat; conditions: 10^-7M CARTp55-102, 24 h, n = 6
# Experimental: INS-1 832/13 cells (a rat insulinoma cell line of male origin) were cultured in RPMI 1640 medium (Sigma Aldrich, St. Louis, MO) containing 2 g/L D-glucose, supplemented with 10% FBS, 10 mM HEPES, 1 mM sodium pyruvate and 50 μM β-mercaptoethanol (Sigma Aldrich) in a humidified atmosphere (37°C, 5% CO2). For investigations of actin architecture, INS-1 832/13 cells were seeded in 8-well chamber slides (Sarstedt) and transfected as described below before being fixed, permeabilized and stained with phalloidin (Phalloidin-iFluor488, Abcam, Cambridge, UK) for 60 min. Nuclei were counter-stained with DAPI and F-actin was visualized using Phalloidin-iFluor488 (Abcam). Phalloidin staining was performed for 60 min at a dilution of 1:1000 (in PBS +0.25% Triton X-100). Phalloidin intensity was quantified using the ImageJ software.
substance,measurement,setting,value
"CARTp55-102: Rat, mouse CARTp55-102 (Phoenix Pharmaceuticals, Cat#003-62); human form Cat#003-60; cocaine- and amphetamine-regulated transcript peptide (IPIYEKKYGQVPMCDAGEQCAVRKGARIGKLCDCPRGTSCNSFLLKCL; ends and bridges not checked; cysteine pairing not given here)",cAMP,INS-1 832/13 cells [1],increase cAMP
same,Activation of AtT20,AtT20,capable of activating AtT20
same,Displacement of radiolabeled CART,AtT20 cells,radiolabeled CART to be displaced by CARTp55-102
same,Insulinotropic effect of CARTp55-102 on glucose and IBMX-stimulated secretion in Gpr162 KD cells,INS-1 832/13 cells [2]; n = 6,abolished
same,Insulinotropic effect of CARTp55-102 on glucose and IBMX-stimulated secretion in Gpr162 KD cells,"INS-1 832/13 cells [2]; n = 6, listed as CART",near-complete abolishment
same,Synchronization of Ca2+ oscillations,beta cells in islets,increased synchronization of Ca^2+ oscillations
same,Anorexigenic effects of CART on meal microstructure after Gpr160 knockdown,"rats; AAV-mediated knockdown of Gpr160 in dorsal vagal complex, rat",partially attenuates the anorexigenic effects of CART on meal microstructure
same,Anorexigenic effect,rats,anorexigenic effects
same,CART-GIP receptor interaction (PLA control),GIP receptor,no interaction was found between CART and the GIP receptor
same,Effect of CARTp on actin staining in Gpr162 KD cells,INS-1 832/13 cells [3]; listed as CART,near-complete abolishment
same,Effect of CARTp on actin staining in Gpr162 KD cells,INS-1 832/13 cells [3]; listed as CARTp,without effect; also recorded: lost in Gpr162 KD cells
same,Increase in actin staining,"INS-1 832/13 cells [3]; control cells, phalloidin",approximately 2 -fold
